Test results as given in patent US12054495B2, “Substituted macrocyclic compounds and related methods of treatment” (Alkermes, Inc., priority 2019, dated 2024).
pEC50: −log10 of the molar value.

molecular target: T1, human orexin-2 receptor (OX2R) (Homo sapiens, UniProt O43614); assay: Human OX2R IP1 assay; type: cell-based; conditions: T-Rex CHO cells stably overexpressing human OX2R, IP1 accumulation, 1 hr at 37 degrees C; mean EC50; ∧ = racemic mixture
T1 construct: expressed in transfected cells
T1 sequence (O43614 1-444): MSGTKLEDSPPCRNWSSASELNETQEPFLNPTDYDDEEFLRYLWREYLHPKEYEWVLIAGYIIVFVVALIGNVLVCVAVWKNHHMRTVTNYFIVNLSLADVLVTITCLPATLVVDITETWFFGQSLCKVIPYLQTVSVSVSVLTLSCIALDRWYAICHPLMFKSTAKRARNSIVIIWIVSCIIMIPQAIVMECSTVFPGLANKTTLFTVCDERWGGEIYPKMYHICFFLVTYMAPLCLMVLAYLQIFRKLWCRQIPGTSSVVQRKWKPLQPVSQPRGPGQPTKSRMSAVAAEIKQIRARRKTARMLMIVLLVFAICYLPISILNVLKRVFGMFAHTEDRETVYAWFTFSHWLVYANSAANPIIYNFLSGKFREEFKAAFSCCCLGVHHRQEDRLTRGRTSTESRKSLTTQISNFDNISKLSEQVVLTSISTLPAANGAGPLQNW
Description: T-Rex CHO cells stably overexpressing the human orexin-2 receptor (OX2R) were induced overnight with 1 μg/mL of doxycycline in a T225 flask. 24 hours post induction, cells were lifted with accutase and plated into a 384-well proxy plate at 30,000 cells/well. Cells were then treated with different test compounds in 1× stimulation buffer containing 10 mM Hepes, 1 mM CaCl2), 0.5 mM MgCl2, 4.2 mM KCl, 146 mM NaCl, 5.5 mM glucose, and 50 mM LiCl, pH 7.4, for 1 hr at 37 degrees C. Following incubation, the reaction was terminated by the addition of detection mix, which is composed of IP1-d2 and anti-IP1-cryptate diluted in lysis buffer as well as 1× stimulation buffer. The plates were allowed to incubate for 1 hour at room temperature and were then read in the EnVision® multimode plate reader, measuring inositol phosphate levels.
Cisbio IP1 is a cell-based functional assay quantifying the accumulation of inositol monophosphate (IP), a metabolite released as a result of orexin 2 receptor activation through the phospholipase C-Gq signaling pathway. This is a competitive immunoassay in which the IP1 produced by the cells upon receptor activation competes with the IP1 analog coupled to the d2 fluorophore (acceptor) for binding to an anti-IP1 monoclonal antibody labeled with Eu cryptate (donor). The measured HTRF-FRET based signal is inversely proportional to the IP1 concentration produced.
The EC50 values reported in Table 2 were obtained according to the human OX2R IP1 assay described above. Data are the mean EC50 values ±S.E.M. The compound methyl (2R,3S)-3-((methylsulfonyl)amino)-2-(((cis-4-phenylcyclohexyl)oxy)methyl)-piperidine-1-carboxylate is a reference compound which is disclosed in Example 5 of PCT publication no. WO2017/135306.

pEC50 | SMILES
< 6.00 | CS(=O)(=O)N[C@H]1CCCN2C(=O)CCCCOc3ccccc3[C@H]3CC[C@H](CC3)OC[C@@H]12 [Compound 3]
> 7.00 | CS(=O)(=O)N[C@H]1CCCN2C(=O)COc3ncc(F)cc3[C@H]3CC[C@H](CC3)OC[C@@H]12 [Compound 64]
> 7.00 | CS(=O)(=O)N[C@H]1CCN2C(=O)COc3c(F)cc(F)cc3[C@H]3CC[C@H](CC3)OC[C@@H]12 [Compound 43]
> 7.00 | CS(=O)(=O)N[C@H]1CCCN2C(=O)COc3c(F)cccc3[C@H]3CC[C@H](CC3)OC[C@@H]12 [Compound 11]
> 7.00 | CS(=O)(=O)N[C@H]1CCCN2C(=O)COc3ccc(Br)cc3[C@H]3CC[C@H](CC3)OC[C@@H]12 [Compound 57]
> 7.00 | CS(=O)(=O)N[C@H]1CCN2C(=O)COc3c(F)cccc3[C@H]3CC[C@H](CC3)OC[C@@H]12 [Compound 42]
> 7.00 | CS(=O)(=O)N[C@H]1CCCN2C(=O)COc3c(F)cc(F)cc3[C@H]3CC[C@H](CC3)OC[C@@H]12 [Compound 12]
6.00 to 7.00 | CS(=O)(=O)N[C@H]1CCCN2CC(F)(F)Oc3c(F)cc(F)cc3[C@H]3CC[C@H](CC3)OC[C@@H]12 [Compound 59]
> 7.00 | CS(=O)(=O)N[C@H]1CCN2C(=O)C(F)(F)Oc3ccccc3[C@H]3CC[C@H](CC3)OC[C@@H]12 [Compound 53]
> 7.00 | CS(=O)(=O)N[C@H]1CCCN2C(=O)COc3ccccc3[C@H]3CC[C@H](CC3)OC[C@@H]12 [Compound 2]
> 7.00 | CS(=O)(=O)N[C@H]1CCCN2CCOc3ccccc3[C@H]3CC[C@H](CC3)OC[C@@H]12 [Compound 6]
6.00 to 7.00 | CC1(C)CN2CCC[C@H](NS(C)(=O)=O)[C@@H]2CO[C@H]2CC[C@H](CC2)c2ccccc2O1 [Compound 44]
6.00 to 7.00 | CS(=O)(=O)N[C@H]1CCCN2C(=O)COc3nnccc3[C@H]3CC[C@H](CC3)OC[C@@H]12 [Compound 56]
6.00 to 7.00 | CS(=O)(=O)N[C@H]1CCCN2CCOc3ncccc3[C@H]3CC[C@H](CC3)OC[C@@H]12 [Compound 65]
6.00 to 7.00 | CS(=O)(=O)N[C@H]1CCCN2CCOc3c(F)cc(F)cc3[C@H]3CC[C@H](CC3)OC[C@@H]12 [Compound 58]
< 6.00 | CS(=O)(=O)N[C@H]1CCN2CCOc3ccccc3[C@H]3CC[C@H](CC3)OC[C@@H]12 [Compound 39]

pEC50 | SMILES
> 7.00 | CC1(C)Oc2ccccc2[C@H]2CC[C@H](CC2)OC[C@H]2[C@@H](NS(C)(=O)=O)CCCN2C1=O [Compound 36]
> 7.00 | CS(=O)(=O)N[C@H]1CCN2C(=O)COc3ccccc3[C@H]3CC[C@H](CC3)OC[C@@H]12 [Compound 7]
> 7.00 | CS(=O)(=O)N[C@H]1CCN2C(=O)C(F)(F)Oc3c(F)cc(F)cc3[C@H]3CC[C@H](CC3)OC[C@@H]12 [Compound 54]
6.00 to 7.00 | CS(=O)(=O)N[C@H]1CCCN2CCOc3c(F)cccc3[C@H]3CC[C@H](CC3)OC[C@@H]12 [Compound 13]
> 7.00 | CS(=O)(=O)N[C@H]1CCCN2C(=O)CCCOc3ccccc3[C@H]3CC[C@H](CC3)OC[C@@H]12 [Compound 4]
6.00 to 7.00 | CS(=O)(=O)N[C@H]1CCCN2C(=O)CCc3ccccc3[C@H]3CC[C@H](CC3)OC[C@@H]12 [Compound 10]
6.00 to 7.00 | CS(=O)(=O)N[C@H]1CCN2C(=O)COc3ncccc3[C@H]3CC[C@H](CC3)OC[C@@H]12 [Compound 18]
< 6.00 | CS(=O)(=O)N[C@H]1CCCN2CC(F)(F)Oc3ccccc3[C@H]3CC[C@H](CC3)OC[C@@H]12 [Compound 41]
> 7.00 | CS(=O)(=O)N[C@H]1CCCN2C(=O)COc3ccc(Cl)cc3[C@H]3CC[C@H](CC3)OC[C@@H]12 [Compound 51]
> 7.00 | CS(=O)(=O)N[C@H]1CCCN2C(=O)C(F)(F)Oc3ccccc3[C@H]3CC[C@H](CC3)OC[C@@H]12 [Compound 40]
> 7.00 | CS(=O)(=O)N[C@H]1CCCN2C(=O)COc3nccnc3[C@H]3CC[C@H](CC3)OC[C@@H]12 [Compound 55]
< 6.00 | CS(=O)(=O)N[C@H]1CCCN2CCOc3ccc(Cl)cc3[C@H]3CC[C@H](CC3)OC[C@@H]12 [Compound 61]
> 7.00 | CS(=O)(=O)N[C@H]1CCCN2C(=O)C(F)(F)Oc3c(F)cc(F)cc3[C@H]3CC[C@H](CC3)OC[C@@H]12 [Compound 52]
< 6.00 | CS(=O)(=O)N[C@H]1CCCN2CCCOc3ccccc3[C@H]3CC[C@H](CC3)OC[C@@H]12 [Compound 5]
> 7.00 | CS(=O)(=O)N[C@H]1CCCN2C(=O)COc3ncccc3[C@H]3CC[C@H](CC3)OC[C@@H]12 [Compound 46]
> 7.00 | CS(=O)(=O)N[C@H]1CCCN2C(=O)CCOc3ccccc3[C@H]3CC[C@H](CC3)OC[C@@H]12 [Compound 1]

tested on: not listed separately; assay: Hepatocytes stability assay (human hepatocytes); type: in vitro ADME; conditions: both sexes, cryopreserved hepatocytes, 1 μM test compound, 1×10^6 cell/mL, 37 degrees C, read-out: CLint (μL/min/million cells)
Description: (§1) In vitro metabolic stability was assessed using cryopreserved hepatocytes from male Sprague Dawley rats and a pool of 50 mixed gender humans (BioIVT, Baltimore, MD). The incubation mixtures were prepared by mixing 250 μL of pre-warmed KHB (Krebs-Henseleit buffer) containing 2×10^6 cell/mL of hepatocytes with 250 μL of pre-warmed KHB buffer containing 2 μM of test compounds in a 48-well plate, giving a final concentration of 1 μM test compound (0.1% DMSO) and 1×10^6 cell/mL of hepatocytes. The reaction mixture was incubated at 37 degrees C. A 50 μL aliquot of incubation mixture was taken at time points (0, 15, 30, 60, 120 and 240 minutes) and transferred into a 96-well plate containing 300 μL ice-cold acetonitrile (containing 30 ng/mL of labetalol and 10 ng/mL of Naltrexone-d3 as internal standards) and immediately placed in ice to terminate the reaction. Samples were centrifuged, and supernatants were transferred into 96-well plates for liquid chromatography with tandem mass spectrometry (LC-MS/MS) analysis to monitor the depletion of the test compound.
(§2) Data was calculated as percent remaining by assuming zero-minute time point peak area ratio (analyte/IS) as 100% and dividing remaining time point peak area ratios by zero-minute time point peak area ratio. Data were fitted to a first-order decay model to determine half-life. From a plot of log (ln) peak area against time, the slope of the line was determined. Subsequently, half-life (T1/2) and intrinsic clearance (CLint) were calculated using the equations below: Elimination rate constant (k)=(−slope) Half-life (T1/2)min=0.693/k Intrinsic Clearance (CLint) (mL/min/million cells)=(V×0.693)/T1/2 V=incubation volume mL/number of cells The in vitro T1/2 was converted to in vitro intrinsic clearance (CLint,hep) in units of mL/min/kg using the formula shown below:
(§3) [formula] The in vitro intrinsic clearance (CLint,hep) was scaled to in vivo hepatic clearance (CL,hep) using the following equation which was adapted from a well-stirred model.
(§4) [formula] where Q is the liver blood flow and fu is the fraction unbound (assumed to be unity in this case). All parameters used in the calculation are shown below (Table 4).
(§5) The extraction ratio (ER) was calculated by dividing the hepatic clearance of a compound to the liver blood flow. The data reported in Table 5 were obtained according to the human hepatocytes stability assay described above.

hepatocyte CLint at 1 μM | SMILES
63 µL/min/1e6 cells | CS(=O)(=O)N[C@H]1CCCN2CCCOc3ccccc3C3CCC(CC3)OCC12 (stereo partly drawn) [Compound 5]
60 µL/min/1e6 cells | CS(=O)(=O)N[C@H]1CCCN2CC(F)(F)Oc3ccccc3C3CCC(CC3)OCC12 (stereo partly drawn) [Compound 41]

tested on: human hepatocytes; assay: Hepatocytes stability assay (human hepatocytes); type: in vitro ADME; conditions: scaled hepatic clearance divided by liver blood flow, fu assumed unity
Description: as §1, §2, §3, §4, §5

Extraction Ratio (ER) | SMILES
0.90 | CS(=O)(=O)N[C@H]1CCCN2CCCOc3ccccc3C3CCC(CC3)OCC12 (stereo partly drawn) [Compound 5]
0.90 | CS(=O)(=O)N[C@H]1CCCN2CC(F)(F)Oc3ccccc3C3CCC(CC3)OCC12 (stereo partly drawn) [Compound 41]
